Results taken from ChEMBL document CHEMBL3826873, “Efficient transmembrane anion transport mediated by a bis(imidazolyl)-functionalized bis(choloyl) conjugate” (Bioorg Med Chem Lett, 2016).
Active and inactive are the calls of the source. The calls are words filed in the database; no cut-off is given here.

Tests used:
[1] = Anionophoric activity across egg yolk phosphatidylcholine-based liposomal membrane vesicles (unknown origin) assessed as efflux of chloride anions after 300 seconds in presence of sodium nitrate in external solution by electrode technique; format: ADME; details: artificial membrane, 5 min
[2] = Anionophoric activity across egg yolk phosphatidylcholine-based liposomal membrane vesicles (unknown origin) assessed as efflux of chloride anions at 3 mol% after 300 seconds in presence of Cs+ by electrode technique; format: ADME; details: artificial membrane, 5 min
[3] = Anionophoric activity across egg yolk phosphatidylcholine-based liposomal membrane vesicles (unknown origin) assessed as relative chloride efflux measured as ratio of intrinsic rate constant and dissociation constant of self-association process after 300 seconds in presence of sodium nitrate in external solution by electrode technique; format: ADME; details: artificial membrane, 5 min
[4] = Anionophoric activity across egg yolk phosphatidylcholine-based liposomal membrane vesicles (unknown origin) assessed as efflux of chloride anions at 3 mol% after 300 seconds in presence of Na+ by electrode technique; format: ADME; details: artificial membrane, 5 min
[5] = Anionophoric activity across egg yolk phosphatidylcholine-based liposomal membrane vesicles (unknown origin) assessed as efflux of chloride anions at 5 mol% after 300 seconds in presence of sodium sulfate by electrode technique; format: ADME; details: artificial membrane, 5 min
[6] = Anionophoric activity across egg yolk phosphatidylcholine-based liposomal membrane vesicles (unknown origin) assessed as induction of pH discharge at 3 mol% after 20 mins in presence of NO3- by fluorescence based pyranine entrap assay; details: artificial membrane
[7] = Anionophoric activity across egg yolk phosphatidylcholine-based liposomal membrane vesicles (unknown origin) assessed as induction of pH discharge at 3 mol% after 20 mins in presence of I- by fluorescence based pyranine entrap assay; details: artificial membrane
[8] = Anionophoric activity across egg yolk phosphatidylcholine-based liposomal membrane vesicles (unknown origin) assessed as induction of pH discharge at 3 mol% after 20 mins in presence of Cl- by fluorescence based pyranine entrap assay; details: artificial membrane
[9] = Anionophoric activity across egg yolk phosphatidylcholine-based liposomal membrane vesicles (unknown origin) assessed as induction of pH discharge at 3 mol% after 20 mins in presence of Br- by fluorescence based pyranine entrap assay; details: artificial membrane
[10] = Anionophoric activity across egg yolk phosphatidylcholine-based liposomal membrane vesicles (unknown origin) assessed as efflux of chloride anions at 3 mol% after 300 seconds in presence of Li+ by electrode technique; format: ADME; details: artificial membrane, 5 min
[11] = Anionophoric activity across egg yolk phosphatidylcholine-based liposomal membrane vesicles (unknown origin) assessed as efflux of chloride anions at 3 mol% after 300 seconds in presence of K+ by electrode technique; format: ADME; details: artificial membrane, 5 min
[12] = Anionophoric activity across 70% POPC/30% cholesterol-based liposomal membrane vesicles (unknown origin) assessed as induction of pH discharge at 3 mol% after 20 mins by fluorescence based pyranine entrap assay
[13] = Anionophoric activity across egg yolk phosphatidylcholine-based liposomal membrane vesicles (unknown origin) assessed as efflux of chloride anions at 3 mol% after 300 seconds in presence of Rb+ by electrode technique; format: ADME; details: artificial membrane, 5 min

Row | Activity [1] | Activity [2] | Ratio [3] | Activity [4] | Activity [5] | Activity [6] | Activity [7] | Activity [8] | Activity [9] | Activity [10] | Activity [11] | Activity [13] | Structure (SMILES) | Activity [12]
1 | Not Active | – | – | – | – | – | – | – | – | – | – | – | C[C@H](CCC(=O)NCc1ccc(CNC(=O)CC[C@@H](C)[C@H]2CC[C@H]3[C@@H]4[C@H](O)C[C@@H]5C[C@H](O)CC[C@]5(C)[C@H]4C[C@H](O)[C@]23C)cc1)[C@H]1CC[C@H]2[C@@H]3[C@H](O)C[C@@H]4C[C@H](O)CC[C@]4(C)[C@H]3C[C@H](O)[C@]12C | –
2 | Dose-dependent effect | Active | 1.45 ×10⁻² /s | Active | Active | Active | Active | Active | Active | Active | Active | Active | C[C@H](CCC(=O)NC(Cc1cnc[nH]1)C(=O)NCc1ccc(CNC(=O)C(Cc2cnc[nH]2)NC(=O)CC[C@@H](C)[C@@H]2CC[C@@H]3[C@@H]4[C@@H](C[C@@H](O)[C@]32C)[C@]2(C)CC[C@H](O)C[C@@H]2C[C@@H]4O)cc1)[C@H]1CC[C@H]2[C@@H]3[C@H](O)C[C@@H]4C[C@H](O)CC[C@]4(C)[C@H]3C[C@H](O)[C@]12C (some centres undefined) | Active
